Data as given in US11566229B2, “Expansion and maintenance of adult primary human hepatocytes in culture” (Wisconsin Alumni Research Foundation, priority 2018, dated 2023).

What was measured:
[1] = system: ESC-hepatocyte derived SHPCs; settings: SHPC medium, co-cultured with MEFs and U0126; QPCR, FIG. 6
Source text: We treated the ESC-hepatocyte derived SHPCs in SHPC medium and co-cultured with MEFs and U0126. We FAC sorted the albumin reporter expressing hepatocytes and performed QPCR.

[2] = system: mouse adult proliferating hepatocytes; settings: U0126 treated mouse adult proliferating hepatocytes
Source text: Total RNA was qualified with Life Technologies Qubit fluorometer (Q32857) and Agilent Bioanalyzer (G2940CA). Total RNA was used to prepare indexed cDNA libraries with the Ligation Mediated Sequencing (LM-Seq) protocol (Hou, Z et al. 2015). Final indexed cDNA libraries were pooled with forty-four uniquely indexed LM-Seq cDNA libraries per lane and sequenced on an Illumina HiSeq 3000.
We derived SHPCs from adult mouse liver and treated them with the MAPK inhibitor U0126.

With `N#CC(=C(/N)Sc1ccccc1N)/C(C#N)=C(\N)Sc1ccccc1N` [U0126] the “increase in CYP3A expression” value [1] was 3 fold, the “increase in albumin expression” value [1] was 2 fold and the “CYP1A2 gene expression (RNA-Seq)” value ([2]; vehicle 1) was 78. The “RARA gene expression (RNA-Seq)” value ([2]; vehicle 1) was 5, the “AHR gene expression (RNA-Seq)” value ([2]; vehicle 4) was 11 and the “UGT1A1 gene expression (RNA-Seq)” value ([2]; vehicle 6) was 54. The “CYP3A16 (human fetal CYP3A4) gene expression (RNA-Seq)” value ([2]; vehicle 15) was 2, the “RXRA gene expression (RNA-Seq)” value ([2]; vehicle 28) was 40 and the “UGT1A6A gene expression (RNA-Seq)” value ([2]; vehicle 28) was 189. The “CYP1A1 gene expression (RNA-Seq)” value ([2]; vehicle 36) was 1447, the “APOH gene expression (RNA-Seq)” value ([2]; vehicle 128) was 245 and the “HNF4A gene expression (RNA-Seq)” value ([2]; vehicle 254) was 340. For the same molecule, the “APOB gene expression (RNA-Seq)” value ([2]; vehicle 332) was 567, the “CYP3A11 (human adult CYP3A4) gene expression (RNA-Seq)” value ([2]; vehicle 496) was 563 and the “Albumin gene expression (RNA-Seq)” value ([2]; vehicle 6523) was 11379.
